Data taken from US10221170B2, “Difluoropyrrolidines as orexin receptor modulators” (Eolas Therapeutics, Inc., priority 2014, dated 2019).

Columns and labels:
OX2 = target: T1, OX2 (Homo sapiens, UniProt O43614); assay: Orexin receptor cell-based functional assay (FLIPR [Ca2+]i), OX2; conditions: CHO-OX2 cells, FLIPR calcium, EC90 of OXA
T1 construct: expressed in transfected cells; host or cells: CHO (CHO-OX2)
T1 sequence (O43614 1-444): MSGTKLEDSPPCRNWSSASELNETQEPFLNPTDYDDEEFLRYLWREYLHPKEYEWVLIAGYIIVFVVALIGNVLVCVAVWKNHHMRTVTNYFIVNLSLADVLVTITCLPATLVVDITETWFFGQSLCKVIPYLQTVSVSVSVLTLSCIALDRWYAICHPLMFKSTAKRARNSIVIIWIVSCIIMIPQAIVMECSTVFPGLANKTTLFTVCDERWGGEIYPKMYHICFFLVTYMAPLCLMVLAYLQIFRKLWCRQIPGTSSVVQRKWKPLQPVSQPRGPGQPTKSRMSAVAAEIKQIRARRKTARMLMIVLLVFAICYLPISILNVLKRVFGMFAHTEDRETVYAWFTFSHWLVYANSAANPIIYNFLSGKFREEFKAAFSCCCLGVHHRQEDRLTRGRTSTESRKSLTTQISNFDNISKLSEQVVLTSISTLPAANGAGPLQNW
Experimental: (§1) Measurement of [Ca^2+]i using a FLIPR: CHO-OX1 or CHO-OX2 cells were seeded into black-walled clear-base 384-well plates (Corning, catalog #3712) at a density of 20,000 cells per well in F12-K medium supplemented with 10% FBS and then incubated in a 5% CO2, 37 C incubator overnight to reach 90% confluency. The cells were incubated with equal volume of calcium6 loading buffer (Molecular Devices, Inc.) containing 2.5 mM probenecid at 37° C. for 2 h, followed by test compounds (dose-range 0.1 nM-10 μM) for another 30 min. The plates were then placed into a FLIPR (Molecular Devices, Inc.) to monitor fluorescence (λ excitation 488 nm, λ emission 540 nm) before and after the addition of EC90 of [OXA].

OX1 = target: T2, OX1 (Homo sapiens, UniProt O43613); assay: Orexin receptor cell-based functional assay (FLIPR [Ca2+]i), OX1; conditions: CHO-OX1 cells, FLIPR calcium, EC90 of OXA
T2 construct: expressed in transfected cells; host or cells: CHO (CHO-OX1)
T2 sequence (O43613 1-425): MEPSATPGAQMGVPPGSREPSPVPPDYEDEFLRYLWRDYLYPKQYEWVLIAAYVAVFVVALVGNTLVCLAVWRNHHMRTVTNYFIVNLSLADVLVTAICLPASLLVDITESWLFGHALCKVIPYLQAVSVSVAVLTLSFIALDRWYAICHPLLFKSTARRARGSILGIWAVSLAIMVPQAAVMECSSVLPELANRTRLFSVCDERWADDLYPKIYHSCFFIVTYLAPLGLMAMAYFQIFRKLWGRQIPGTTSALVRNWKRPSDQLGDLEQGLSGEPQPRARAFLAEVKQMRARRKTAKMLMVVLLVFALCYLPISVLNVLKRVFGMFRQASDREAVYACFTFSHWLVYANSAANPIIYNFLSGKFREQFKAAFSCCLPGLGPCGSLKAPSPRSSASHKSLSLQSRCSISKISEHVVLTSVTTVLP
Experimental: as §1

SMILES | IC50 (OX2) [nM] | IC50 (OX1) [nM]
O=C(c1c(-n2nccn2)ccc(F)c1F)N1CCC(F)(F)[C@H]1CNc1ncc(C(F)(F)F)cn1 [Example 52] | > 5000 | 6
O=C(c1cc(Cl)ccc1-n1nccn1)N1CCC(F)(F)[C@H]1CNc1ncc(C(F)(F)F)cn1 [Example 54] | > 5000 | 3
Cc1cccc(C(=O)N2CCC(F)(F)[C@H]2CNc2ncc(C(F)(F)F)cn2)c1-n1nccn1 [Example 55] | > 5000 | 7
N#Cc1ccc(-n2nccn2)c(C(=O)N2CCC(F)(F)[C@H]2CNc2ncc(C(F)(F)F)cn2)c1 [Example 56] | > 5000 | 14
O=C(c1c(F)cccc1-n1nccn1)N1CCC(F)(F)[C@H]1CNc1ncc(C(F)(F)F)cn1 [Example 57] | > 5000 | 3
Cc1cccc(-n2nccn2)c1C(=O)N1CCC(F)(F)[C@H]1CNc1ncc(C(F)(F)F)cn1 [Example 58] | > 5000 | 14
O=C(c1ccc(F)c(F)c1-n1nccn1)N1CCC(F)(F)[C@H]1CNc1ncc(C(F)(F)F)cn1 [Example 59] | > 5000 | 757
Cc1cc(C)c(-n2nccn2)c(C(=O)N2CCC(F)(F)[C@H]2CNc2ncc(C(F)(F)F)cn2)c1 [Example 60] | > 5000 | 16
Cc1cccc(C(=O)N2CCC(F)(F)[C@H]2CNc2ncc(Cl)cn2)c1-n1nccn1 [Example 63] | > 5000 | 3
O=C(c1cc(F)ccc1-n1nccn1)N1CCC(F)(F)[C@H]1CNc1ncc(Cl)cn1 [Example 64] | > 5000 | 22
Cc1ccc(-n2nccn2)c(C(=O)N2CCC(F)(F)[C@H]2CNc2ncc(Cl)cn2)c1 [Example 65] | > 5000 | 6
N#Cc1ccc(-n2nccn2)c(C(=O)N2CCC(F)(F)[C@H]2CNc2ncc(Cl)cn2)c1 [Example 66] | > 5000 | 6
O=C(c1ccc(F)c(F)c1-n1nccn1)N1CCC(F)(F)[C@H]1CNc1ncc(Cl)cn1 [Example 67] | > 5000 | 1000
Cc1ccc(C(=O)N2CCC(F)(F)[C@H]2CNc2ncc(Cl)cn2)c(-n2nccn2)c1F [Example 68] | > 5000 | 105
Cc1c(F)ccc(C(=O)N2CCC(F)(F)[C@H]2CNc2ncc(Cl)cn2)c1-n1nccn1 [Example 69] | > 5000 | 21
O=C(c1ncccc1-n1nccn1)N1CCC(F)(F)[C@H]1CNc1ncc(Cl)cn1 [Example 70] | > 5000 | 20
O=C(c1cc(F)ccc1-n1nccn1)N1CCC(F)(F)[C@H]1COc1ccc(C(F)(F)F)cn1 [Example 74] | > 5000 | 660

Other lines, results leading:

IC50 (OX2) [nM] | IC50 (OX1) [nM] | SMILES
> 5000 | 1 | Cc1nc(C(=O)N2CCC(F)(F)[C@H]2CNc2ncc(C(F)(F)F)cn2)c(-c2ccc(F)cc2)s1 [Example 1]
> 5000 | 4 | Cc1ccc(-n2nccn2)c(C(=O)N2CCC(F)(F)[C@H]2CNc2ncc(C(F)(F)F)cn2)c1 [Example 2]
> 5000 | 4 | O=C(c1cccc(F)c1-n1nccn1)N1CCC(F)(F)[C@H]1CNc1ncc(C(F)(F)F)cn1 [Example 3]
> 5000 | 4 | O=C(c1cc(F)ccc1-n1nccn1)N1CCC(F)(F)[C@H]1CNc1ncc(C(F)(F)F)cn1 [Example 5]
> 5000 | 15 | Cc1c(F)ccc(C(=O)N2CCC(F)(F)[C@H]2CNc2ncc(C(F)(F)F)cn2)c1-n1nccn1 [Example 7]
> 5000 | 11 | Cc1ccc(C(=O)N2CCC(F)(F)[C@H]2CNc2ncc(C(F)(F)F)cn2)c(-n2nccn2)c1F [Example 8]
> 5000 | 2 | O=C(c1cc(F)ccc1-c1ncccn1)N1CCC(F)(F)[C@H]1CNc1ncc(C(F)(F)F)cn1 [Example 10]
> 5000 | 230 | Cc1ccc(-n2nccn2)c(C(=O)N2CCC(F)(F)[C@H]2COc2ccc(C(F)(F)F)cn2)c1 [Example 25]
840 | 24 | O=C(c1cc(F)c(F)cc1-n1nccn1)N1CCC(F)(F)[C@H]1CNc1ncc(C(F)(F)F)cn1 [Example 51]
830 | 15 | O=C(c1ccc(F)cc1-n1nccn1)N1CCC(F)(F)[C@H]1CNc1ncc(C(F)(F)F)cn1 [Example 53]
720 | 3 | O=C(c1cc(F)ccc1-n1nccn1)N1CCC(F)(F)[C@H]1CNc1cnc(C(F)(F)F)cn1 [Example 77]
